# Source: patent US9896551B2, “Phosphaphenanthrene-based compound and related preparation method and application” (Elite Electronic Material(Zhongshan) Co., Ltd., priority 2015, dated 2018)
# How the values were obtained:
# Assay type in all cases: physicochemical
# [1] = Test Example 1: solvent compatibility, observed by naked eyes; settings: for Compatibility in solvent (precipitation, appearance of solution): stand for 12 hours; for Compatibility in solvent (solubility, appearance of solution): the initial state
# Text: The phosphaphenanthrene-based compound of the embodiment 2, the conventional phosphaphenanthrene-based compound of the comparison 1 and the conventional phosphaphenanthrene-based compound of the comparison 2 are used as test samples of the test example 1. The test samples are respectively dissolved in toluene, methyl ethyl ketone, and acetone, so as to give a test to the compatibilities of the test samples in these solvents.
# [2] = Dissolution of the phosphaphenanthrene-based compound in different solvents; set-up: key: 1: “easily soluble”, which means the solute is dissolved with stirring at room temperature and the solution is clear; “soluble”, which means the solute is dissolved with stirring when being heated up to 120° C. and the solution is clear; 3: “insoluble”, which means the solute is not dissolve even being heated and stirred; settings: about 5 grams in about 30 ml
# Description: (§1) In addition, about 5 grams per serving of the phosphaphenanthrene-based compound are weighed and added to about 30 ml of solvents respectively. Stir with or without heating the solution to dissolve the solute. Observe the dissolution of the phosphaphenanthrene-based compound in different solvents, and the results are shown in Table 1, wherein the numeral “1” represents “easily soluble”, which means the solute is dissolved with stirring at room temperature and the solution is clear; the numeral “2” represents “soluble”, which means the solute is dissolved with stirring when being heated up to 120° C. and the solution is clear; the numeral “3” represents “insoluble”, which means the solute is not dissolve even being heated and stirred.
# In addition, about 5 grams per serving of the phosphaphenanthrene-based compound (as shown in formula (XVI)) are weighed and added to about 30 ml of solvents respectively. Stir with or without heating to dissolve the solute. Observe dissolution of the phosphaphenanthrene-based compound in different solvents, and the results are shown in Table 2, wherein the numeral “1” represents “easily soluble”, which means the solute is dissolved with stirring at room temperature and the solution is clear; the numeral “2” represents “soluble”, which means the solute is dissolved with stirring when being heated up to […] and the solution is clear; the numeral “3” represents “insoluble”, which means the solute is not dissolve even being heated and stirred.
# [3] = as above; set-up: key: 1: “easily soluble”, which means the solute is dissolved with stirring at room temperature and the solution is clear; “soluble”, which means the solute is dissolved with stirring when being heated up to […] and the solution is clear; 3: “insoluble”, which means the solute is not dissolve even being heated and stirred; settings: Methyl ethyl ketone; about 5 grams in about 30 ml
# Description: as §1
# In addition, about 5 grams per serving of the phosphaphenanthrene-based compound (as shown in formula (XVI)) are weighed and added to about 30 ml of solvents respectively. Stir with or without heating to dissolve the solute. […]
SMILES,"Compatibility in solvent (precipitation, appearance of solution) ([1]; Acetone)","Compatibility in solvent (solubility, appearance of solution) ([1]; Acetone)","Compatibility in solvent (precipitation, appearance of solution) ([1]; Methyl ethyl ketone)","Compatibility in solvent (solubility, appearance of solution) ([1]; Methyl ethyl ketone)","Compatibility in solvent (precipitation, appearance of solution) ([1]; Toluene)","Compatibility in solvent (solubility, appearance of solution) ([1]; Toluene)",Dissolution ([2]; 1-Methoxy-2-propyl acetate (PMA)),Dissolution ([2]; Cyclohexanone (CYC)),Dissolution ([2]; Dimethylacetamide (DMAC)),Dissolution ([2]; Methanol (MT)),Dissolution ([2]; Methyl ethyl ketone (MEK)),"Dissolution ([2]; N,N-Dimethylformamide (DMF))",Dissolution ([2]; Proprylene glycol monomethyl ether (PM)),Dissolution ([2]; Toluene (TL)),Dissolution ([2]; Dimethylacetamide),Dissolution ([2]; Dimethylformamide),Dissolution ([2]; Toluene),Dissolution [3]
C=Cc1ccc(COc2ccc(-c3ccc(OCc4ccc(C=C)cc4)c(P4(=O)Oc5ccccc5-c5ccccc54)c3)cc2P2(=O)Oc3ccccc3-c3ccccc32)cc1 (stereo not drawn) [Comparison 2],Precipitated,"Soluble, clear",Precipitated,"Soluble, clear",No,"Soluble, clear",–,–,–,–,–,–,–,–,–,–,–,–
C=Cc1ccc(COc2ccc(OCc3ccc(C=C)cc3)c(P3(=O)Oc4ccccc4-c4ccccc43)c2)cc1 (stereo not drawn) [Comparison 1],Precipitated,"Soluble, clear",Precipitated,"Soluble, clear",No,"Soluble, clear",–,–,–,–,–,–,–,–,–,–,–,–
O=P1(C(O)c2ccc(C(O)P3(=O)Oc4ccccc4-c4ccccc43)cc2)Oc2ccccc2-c2ccccc21 (stereo not drawn) [Embodiment 1],–,–,–,–,–,–,3,3,3,3,3,2,3,3,–,–,–,–
C=Cc1ccc(COC(c2ccc(C(OCc3ccc(C=C)cc3)P3(=O)Oc4ccccc4-c4ccccc43)cc2)P2(=O)Oc3ccccc3-c3ccccc32)cc1 (stereo not drawn) [Embodiment 2],No,"Soluble, clear",No,"Soluble, clear",No,"Soluble, clear",–,–,–,–,–,–,–,–,1,1,1,2
